# According to patent US20210139947A1, “METHOD FOR ASSESSING SUSCEPTIBILITY OF A VIRUS TO TREATMENT BY MEASURING ENZYME ACTIVITY AND A SYSTEM THEREFORE” (priority 2017, published 2021):
# Like-named read-outs stand apart in the source and are kept apart here.
# Experiments:
# [1] = test system: 69SS + 5M Recombinant RT HXB2 M41L,T69S-SS, L210W, R211K, L214F, T215Y; experiment: Drug resistance indicator assay, remaining RT activity; conditions: EFV 9.0 μM
# Procedure: (§5) Drug reaction solution: A buffer identical to above mentioned RT Reaction solution with a defined concentration of an antiviral drug added.
# (§6) Each lysate is split into two aliquots, one whereof is added to a well containing drug at a predetermined concentration, and one whereof is added to a well without added drug. Apart from the lysates, said HIV drug susceptibility reference samples are also included in the assay.
# (§7) The virus susceptibility to treatment with the drug can be determined from the relation between the enzyme activities in the presence and in absence of the drug. This can be expressed as percent remaining RT activity, i.e. the quota between signal in presence of drug and signal in absence of drug times 100.
# [2] = test system: 69SG + 5M Recombinant RT HXB2 M41L,T69S-SG, L210W, R211K, L214F, T215Y; experiment: as above; conditions: EFV 9.0 μM
# Procedure: as §5, §6, §7
# [3] = test system: HTLV-1 RT, Cell culture virus MT-2 Cells; experiment: as above; conditions: EFV 9.0 μM
# Procedure: as §5
# (§8) Each lysate is split into two aliquots, one whereof is added to a well containing drug at a predetermined concentration, and one whereof is added to a well without added drug.
# as §7
# [4] = test system: HIV-2 RT, Cell culture virus CRF01_AB; experiment: as above; conditions: EFV 9.0 μM; HIV-2 CRF01_AB
# [5] = target: T1, SIV Recombinant RT SIVsmH4 (Simian immunodeficiency virus, UniProt P12502); experiment: as above; assay type: biochemical; conditions: for remaining activity at 9 µM: EFV 9.0 μM
# T1 construct: The recombinantly expressed and purified SIV RT was derived from the molecular clone pSIVsm/H4; made in house; host or cells: E. coli BL21 (DE3), vector pSRT.ET 11c
# Procedure: The recombinantly expressed and purified SIV RT was derived from the molecular clone pSIVsm/H4. An expression vector pSRT.ET 11c was constructed and expression of SIV-RT in E. coli strain BL21 (DE3) in ordinary LB medium was carried out. The enzyme was purified in three chromatographic steps on a Heparin Sepharose CL-6B column, a Sepharose FF column and a Phenyl Sepharose CL-4B column.
# (§1) The RT extracts recovered from this process and the other RT samples were analyzed for remaining activity according to above described drug resistance indicator assay.
# [6] = test system: RT extracted from HIV-1 C Plasma Sa147 K103N, E138Q, Y318F, M184V; experiment: as above; assay type: biochemical
# Procedure: (§2) Isolation of HIV is performed in a separation plate, a 96 deep-well microplate (well volume 2 ml). The Viral Load assay is started by addition of 40 μl sample additive e.g 5,5′-dithiobis-(2-nitrobenzoic acid) to each well (see FIG. 2). Thereafter the patient plasmas and control samples are added. Sample additive is mixed with the plasma prior to isolation of HIV for inactivation of certain enzymes present in the plasma. After 20 minutes incubation, a slurry containing 1 μm magnetic polymeric beads, is added to the wells. The positively charged beads are used to capture the HIV particles. At low pH (e.g. 5.5) and appropriate salt concentration the negatively charged HIV particles bind to the beads while most of the other components present in plasma will not bind, e.g. the proteins (antibodies) and anti-retroviral drugs (ARVs). After an additional five minutes incubation, the microwell plate is transported to a magnetic plate. When exposed to the magnetic field from the magnetic plate, the beads will be trapped to the walls of the wells. The plasma can then be removed by aspiration using a pipette. The separation plate is then transported back to the shaker, away from the magnetic plate.
# (§3) The wash procedure (see FIG. 3) starts by adding a first wash buffer, the Bead Wash Buffer, and the entire separation plate will be shaken during three minutes to resuspend the beads. After that, the separation plate is moved to the magnetic plate where the beads will be exposed to the magnetic field and trapped to the walls of the wells. Next, the wash buffer is aspirated. The separation plate is then transported back to the shaker, away from the magnetic plate. In the current example, this wash procedure is repeated three times with the Bead Wash Buffer (referred to as “Wash solution 1” in FIG. 3) and one time with the second wash buffer, the so called Bead Reconditioning Buffer (referred to as “Wash solution 2” in FIG. 3).
# (§4) The reverse transcriptase (RT) is now to be extracted from the viral particles, which is illustrated in FIG. 4. The HIV particle is composed of a protein core surrounded by a lipid bilayer envelope that will break if it is exposed to certain detergents. Once the lipid bilayer envelope is dissolved, the protein core falls apart and the RT inside is released. When the last wash step is finalized, lysis buffer containing e. g. the detergent Synperonic A11 is added to the wells, in FIG. 4 referred to as “lysis buffer”. The virus envelope breaks and the reverse transcriptase, RT, is released. With the magnetic beads still bound to the walls of the wells, the lysate containing the released RT is collected by aspiration and used in the subsequent RT reaction step.
# [7] = test system: RT extracted from HIV-1 C Plasma Sa72 wild type; experiment: as above; assay type: biochemical
# Procedure: as §2, §3, §4
# [8] = target: HTLV-2 RT, Cell culture virus (Human T-cell leukemia virus 2, UniProt P03363); experiment: as above
# Procedure: as §5, §8, §7
# [9] = test system: BLV RT, Cell culture virus FLK-BLV cells; experiment: as above; conditions: EFV 9.0 μM
# Procedure: (This cell line is chronically infected by BLV).
# as §5, §6, §7
# [10] = test system: PERV RT, Cell culture virus PERV-PK15; experiment: as above; conditions: EFV 9.0 μM, 6 mM Mn2+
# Procedure: Virus culture supernatant was cleared from cell debris by centrifugation, aliquoted and stored at −70° C. until use
# as §5
# All buffers used for analysis of γ-retroviruses RTs were supplemented with 6 mM Mn2+, but were otherwise identical to the buffers described above.
# as §6, §7
# [11] = test system: JSRV RT, Cell culture virus UK strain; experiment: as above; conditions: EFV 9.0 μM
# [12] = test system: FIV RT, Cell culture virus M2 CladB; experiment: as above; assay type: biochemical
# Procedure: as §1
# [13] = target: T2, MMTV Recombinant RT BR6 strain (Mouse mammary tumor virus, UniProt P03365); experiment: as above
# T2 sequence (P03365 861-1436 limits assumed): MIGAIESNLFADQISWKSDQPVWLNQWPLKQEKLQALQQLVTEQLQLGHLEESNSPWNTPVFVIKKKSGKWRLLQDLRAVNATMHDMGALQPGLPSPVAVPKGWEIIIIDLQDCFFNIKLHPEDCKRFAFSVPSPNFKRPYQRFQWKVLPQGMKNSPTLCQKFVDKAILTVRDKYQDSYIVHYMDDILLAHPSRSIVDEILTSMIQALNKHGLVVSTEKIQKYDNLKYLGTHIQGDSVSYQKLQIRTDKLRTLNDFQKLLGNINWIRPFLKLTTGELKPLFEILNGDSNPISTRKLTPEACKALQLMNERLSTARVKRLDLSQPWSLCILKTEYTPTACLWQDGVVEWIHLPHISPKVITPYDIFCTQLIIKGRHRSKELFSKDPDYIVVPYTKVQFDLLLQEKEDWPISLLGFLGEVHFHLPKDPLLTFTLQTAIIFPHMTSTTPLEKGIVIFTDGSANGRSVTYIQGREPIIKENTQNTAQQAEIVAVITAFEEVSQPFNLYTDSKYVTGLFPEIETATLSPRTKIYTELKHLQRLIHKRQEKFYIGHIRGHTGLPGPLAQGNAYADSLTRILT
# Procedure: as §5, §6, §7
# [14] = test system: Mammalian γ -polymerase, mithochondria, Beef Heart; experiment: Drug resistance indicator assay, remaining polymerase activity; conditions: EFV 9.0 μM
# Procedure: as §5, §6, §7
# [15] = target: T3, HIV-1 B Recombinant RT BH10 wild type (Human immunodeficiency virus type 1 group M subtype B, UniProt P03366); experiment: biochemical; conditions: read-out: Remaining activity (% of actvity in absence of drug)
# T3 construct: His-tag (C); made in house; host or cells: E. coli BL21 (DE3); plasmid purchased from Genescript
# Procedure: as §1
# [16] = target: HIV-1 B Recombinant RT HXB2 wild type (Human immunodeficiency virus type 1 group M subtype B, UniProt P04585); experiment: biochemical; conditions: read-out: Remaining activity (% of actvity in absence of drug)
# Procedure: as §1
# T1 sequence (P12502 598-1156 limits assumed): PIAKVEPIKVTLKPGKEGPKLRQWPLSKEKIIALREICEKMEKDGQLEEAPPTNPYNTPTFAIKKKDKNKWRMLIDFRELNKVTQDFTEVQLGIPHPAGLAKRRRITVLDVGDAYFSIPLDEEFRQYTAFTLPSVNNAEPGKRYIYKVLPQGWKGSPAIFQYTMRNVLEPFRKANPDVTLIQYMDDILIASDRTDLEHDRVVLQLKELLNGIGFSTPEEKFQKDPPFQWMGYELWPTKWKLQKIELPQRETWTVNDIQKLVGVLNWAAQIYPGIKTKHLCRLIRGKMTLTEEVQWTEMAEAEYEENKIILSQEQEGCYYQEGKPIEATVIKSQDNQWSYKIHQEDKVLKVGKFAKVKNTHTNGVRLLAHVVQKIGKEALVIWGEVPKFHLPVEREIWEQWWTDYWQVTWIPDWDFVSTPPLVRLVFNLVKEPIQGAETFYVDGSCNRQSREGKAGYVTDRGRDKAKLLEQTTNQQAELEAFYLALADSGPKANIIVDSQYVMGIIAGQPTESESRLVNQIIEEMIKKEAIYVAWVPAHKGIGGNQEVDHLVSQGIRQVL
# HTLV-2 RT, Cell culture virus, sequence (P03363 580-1166): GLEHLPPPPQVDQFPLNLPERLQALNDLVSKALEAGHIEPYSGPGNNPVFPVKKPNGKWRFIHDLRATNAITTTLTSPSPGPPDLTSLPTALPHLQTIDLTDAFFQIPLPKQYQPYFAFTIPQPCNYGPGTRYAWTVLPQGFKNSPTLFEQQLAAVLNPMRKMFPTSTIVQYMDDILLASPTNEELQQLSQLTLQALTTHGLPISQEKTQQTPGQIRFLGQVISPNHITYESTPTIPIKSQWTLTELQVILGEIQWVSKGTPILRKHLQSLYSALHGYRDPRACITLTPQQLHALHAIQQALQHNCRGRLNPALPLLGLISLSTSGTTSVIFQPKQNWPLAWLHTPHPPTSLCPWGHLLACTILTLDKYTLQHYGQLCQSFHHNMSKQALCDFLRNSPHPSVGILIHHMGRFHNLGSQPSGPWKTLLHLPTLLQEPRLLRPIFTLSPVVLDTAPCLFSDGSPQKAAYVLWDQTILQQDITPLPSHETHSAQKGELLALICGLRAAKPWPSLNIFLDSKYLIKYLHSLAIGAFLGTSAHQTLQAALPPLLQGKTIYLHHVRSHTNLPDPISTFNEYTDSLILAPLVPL
compound,measurement,setting,value
"O=C1Nc2ccc(Cl)cc2[C@@](C#CC2CC2)(C(F)(F)F)O1 [EFV, (−)6-chloro-4-cyclopropylethynyl-4-trifluoromethyl-I,4-dihydro-2H-3,1-benzoxazin-2-one]",Remaining activity (%),[1],3.5%
same,Remaining activity (%),[2],3.9%
same,Remaining activity (%),[3],93.8%
same,Remaining activity (%),[4],100.2%
same,remaining activity at 9 µM,"[5]; SIVsmH4, read-out: Remaining activity (% of actvity in absence of drug)",99.9%
same,remaining activity at 9 µM,"[5]; SIVsmH4, read-out: Remaining activity (%)",103%
same,Remaining activity (% of actvity in absence of drug),[6]; EFV 9.0 μM,87.8%
same,Remaining activity (% of actvity in absence of drug),[7]; EFV 9.0 μM,8.3%
same,remaining activity at 9 µM,[8],91.7%
same,Remaining activity (%),[9],101.7%
same,Remaining activity (%),[10],98.0%
same,Remaining activity (%),[11],102.7%
same,Remaining activity (% of actvity in absence of drug),[12]; EFV 9.0 μM,93.6%
same,Remaining activity (%),[12]; EFV 9.0 μM,93.6%
same,remaining activity at 9 µM,[13],102%
same,Remaining activity (%),[14],94.8%
"Cc1cc(C#N)cc(C)c1Oc1nc(Nc2ccc(C#N)cc2)nc(N)c1Br [ETV, 4-({6-amino-5-bromo-2-[(4-cyanophenyl)amino]pyrimidin-4-yl}oxy)-3,5-dimethylbenzonitrile]",remaining activity at 21.8 µM,[15],3.5%
same,remaining activity at 21.8 µM,[16],2.8%
same,remaining activity at 21.8 µM,"[5]; ETV 21.8 μM, SIVsmH4, read-out: Remaining activity (% of actvity in absence of drug)",98.5%
same,Remaining activity (% of actvity in absence of drug),[6]; ETV 21.8 μM,68.0%
same,Remaining activity (% of actvity in absence of drug),[7]; ETV 21.8 μM,6.5%
same,Remaining activity (% of actvity in absence of drug),[12]; ETV 21.8 μM,90.6%
"Cc1ccnc2c1NC(=O)c1cccnc1N2C1CC1 [NPV, 11-cyclopropyl-5,11-dihydro-4-methyl-6H-dipyrido[3,2-b:2′,3′-f][1,4]diazepin-6-one]",remaining activity at 81 µM,[15],3.4%
same,remaining activity at 81 µM,[16],8.1%
same,remaining activity at 81 µM,[5]; read-out: Remaining activity (% of actvity in absence of drug),99.5%
same,Remaining activity (% of actvity in absence of drug),[6]; NPV 81.0 μM,94.9%
same,Remaining activity (% of actvity in absence of drug),[7]; NPV 81.0 μM,16.1%
same,Remaining activity (% of actvity in absence of drug),[12]; NPV 81.0 μM,87.7%
"Cc1cc(/C=C/C#N)cc(C)c1Nc1ccnc(Nc2ccc(C#N)cc2)n1 [RPV, 4-{[4-({4-[(1E)-2-cyanoeth-1-en-1-yl]-2,6-dimethylphenyl}amino)pyrimidin-2-yl]amino}benzonitrile]",remaining activity at 12 µM,"[15]; RPV 12.0 μM, BH10 wild type",2.5%
same,remaining activity at 12 µM,"[16]; RPV 12.0 μM, HXB2 wild type",2.4%
same,remaining activity at 12 µM,"[5]; RPV 12.0 μM, SIVsmH4, read-out: Remaining activity (% of actvity in absence of drug)",108%
same,Remaining activity (% of actvity in absence of drug),[6]; RPV 12.0 μM,80.8%
same,Remaining activity (% of actvity in absence of drug),[7]; RPV 12.0 μM,9.3%
same,Remaining activity (% of actvity in absence of drug),[12]; RPV 12.0 μM,86.1%
